The nature of data set [1]: DRUGMATRIX: Tumor Necrosis Factor (TNF), Non-Selective radioligand binding (ligand: [125I] TNF-alpha). Format: cell membranes, Membrane. The note with it: u-937; Not Active = under 50% inhibition at 10 µM.
For data set [2], the target named is Vascular endothelial growth factor receptor 1 (Homo sapiens, UniProt P17948). The format is cell-based. Particulars: huvec. Further: in other assays of this panel Not Active means under 50% inhibition at 10 µM.
In data set [3] the target is D(3) dopamine receptor (Homo sapiens, UniProt P35462). In words: DRUGMATRIX: Dopamine D3 radioligand binding (ligand: [3H] Spiperone). The format is cell membranes, CHO, Membrane.
Data set [4] deals with Insulin receptor (Rattus norvegicus, UniProt P15127). Format: cell membranes, Wistar, Liver, Membrane.
Data set [5] concerns the target Melanocortin receptor 5 (Homo sapiens, UniProt P33032). Format: cell membranes, HEK293, Membrane. Particulars: hek293. Further: in other assays of this panel Not Active means under 50% inhibition at 10 µM.
Data set [6] can be described thus: DRUGMATRIX: Potassium Channel [KATP] radioligand binding (ligand: [3H] Glyburide). The format is cell membranes, Membrane. The note with it: hit-t15; Not Active = under 50% inhibition at 10 µM.
Data set [7] concerns the target Mitogen-activated protein kinase 3 (Homo sapiens, UniProt P27361). In words: DRUGMATRIX: Protein Serine/Threonine Kinase, ERK1 enzyme inhibition (substrate: Myelin Basic Protein). The arrangement: species or system Escherichia coli. Particulars: Not Active = under 50% inhibition at 10 µM.
For data set [8], the target named is T1, Cytochrome P450 2A6 (Homo sapiens, UniProt P11509). Further: in other assays of this panel Not Active means under 50% inhibition at 10 µM.
T1 sequence (P11509 whole entry): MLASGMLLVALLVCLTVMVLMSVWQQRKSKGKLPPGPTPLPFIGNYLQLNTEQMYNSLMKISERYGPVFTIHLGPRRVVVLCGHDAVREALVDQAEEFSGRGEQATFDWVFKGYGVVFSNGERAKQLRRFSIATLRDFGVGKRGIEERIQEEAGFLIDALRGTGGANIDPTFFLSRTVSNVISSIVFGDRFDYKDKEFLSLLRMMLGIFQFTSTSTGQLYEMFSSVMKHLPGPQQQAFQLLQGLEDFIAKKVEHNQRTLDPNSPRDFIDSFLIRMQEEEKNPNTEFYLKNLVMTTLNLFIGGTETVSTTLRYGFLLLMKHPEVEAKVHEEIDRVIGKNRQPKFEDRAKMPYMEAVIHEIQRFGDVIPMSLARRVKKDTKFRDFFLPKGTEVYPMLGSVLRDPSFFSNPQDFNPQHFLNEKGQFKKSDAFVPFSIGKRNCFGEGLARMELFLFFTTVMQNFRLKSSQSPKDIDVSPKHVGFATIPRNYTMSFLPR
The note with it: bti-tn-5b1-4.

SMILES strings stand for the structures.

D(3) dopamine receptor, sequence (P35462 whole entry): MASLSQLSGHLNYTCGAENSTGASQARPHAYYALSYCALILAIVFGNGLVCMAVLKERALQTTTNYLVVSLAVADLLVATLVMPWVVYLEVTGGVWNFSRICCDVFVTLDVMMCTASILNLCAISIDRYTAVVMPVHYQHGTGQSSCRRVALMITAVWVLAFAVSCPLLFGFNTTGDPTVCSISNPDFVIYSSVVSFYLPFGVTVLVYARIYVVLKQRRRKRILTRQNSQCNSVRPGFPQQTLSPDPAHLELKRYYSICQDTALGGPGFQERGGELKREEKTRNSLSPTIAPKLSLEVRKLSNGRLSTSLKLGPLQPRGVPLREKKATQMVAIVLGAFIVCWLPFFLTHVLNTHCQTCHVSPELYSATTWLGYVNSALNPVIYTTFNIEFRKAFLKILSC
Vascular endothelial growth factor receptor 1, sequence (P17948 whole entry): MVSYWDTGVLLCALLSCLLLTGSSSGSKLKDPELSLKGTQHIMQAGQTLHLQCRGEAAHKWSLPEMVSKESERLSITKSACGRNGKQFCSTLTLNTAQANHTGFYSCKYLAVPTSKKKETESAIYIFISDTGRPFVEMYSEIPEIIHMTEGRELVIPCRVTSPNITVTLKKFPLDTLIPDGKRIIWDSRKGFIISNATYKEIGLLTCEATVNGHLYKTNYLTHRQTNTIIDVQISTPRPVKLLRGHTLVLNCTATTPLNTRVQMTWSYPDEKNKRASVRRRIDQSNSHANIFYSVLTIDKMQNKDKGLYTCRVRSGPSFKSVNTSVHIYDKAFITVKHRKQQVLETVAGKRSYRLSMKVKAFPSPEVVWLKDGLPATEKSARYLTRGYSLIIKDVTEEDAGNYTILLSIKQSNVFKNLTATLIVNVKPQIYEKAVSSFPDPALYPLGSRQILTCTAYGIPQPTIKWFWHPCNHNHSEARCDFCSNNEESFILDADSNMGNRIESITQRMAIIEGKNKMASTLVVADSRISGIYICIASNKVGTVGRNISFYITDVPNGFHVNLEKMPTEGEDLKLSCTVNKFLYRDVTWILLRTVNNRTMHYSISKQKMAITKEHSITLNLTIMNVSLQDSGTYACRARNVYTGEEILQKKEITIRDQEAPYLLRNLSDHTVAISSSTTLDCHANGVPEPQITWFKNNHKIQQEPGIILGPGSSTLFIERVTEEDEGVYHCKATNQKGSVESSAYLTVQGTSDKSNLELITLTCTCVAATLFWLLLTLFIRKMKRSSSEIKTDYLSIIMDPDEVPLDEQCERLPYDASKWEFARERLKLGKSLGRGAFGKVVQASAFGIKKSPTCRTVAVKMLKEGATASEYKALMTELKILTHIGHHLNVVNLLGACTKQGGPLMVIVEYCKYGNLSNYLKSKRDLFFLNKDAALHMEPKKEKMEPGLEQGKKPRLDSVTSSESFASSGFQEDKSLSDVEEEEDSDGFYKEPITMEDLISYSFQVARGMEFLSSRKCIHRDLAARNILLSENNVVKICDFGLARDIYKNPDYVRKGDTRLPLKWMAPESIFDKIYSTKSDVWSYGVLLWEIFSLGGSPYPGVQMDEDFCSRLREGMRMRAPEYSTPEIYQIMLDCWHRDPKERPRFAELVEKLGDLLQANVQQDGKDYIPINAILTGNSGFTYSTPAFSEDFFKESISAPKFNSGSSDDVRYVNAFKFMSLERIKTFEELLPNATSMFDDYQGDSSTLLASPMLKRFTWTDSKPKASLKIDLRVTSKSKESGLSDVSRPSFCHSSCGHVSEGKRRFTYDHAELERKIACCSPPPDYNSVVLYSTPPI
Insulin receptor, sequence (P15127 27-759 limits assumed): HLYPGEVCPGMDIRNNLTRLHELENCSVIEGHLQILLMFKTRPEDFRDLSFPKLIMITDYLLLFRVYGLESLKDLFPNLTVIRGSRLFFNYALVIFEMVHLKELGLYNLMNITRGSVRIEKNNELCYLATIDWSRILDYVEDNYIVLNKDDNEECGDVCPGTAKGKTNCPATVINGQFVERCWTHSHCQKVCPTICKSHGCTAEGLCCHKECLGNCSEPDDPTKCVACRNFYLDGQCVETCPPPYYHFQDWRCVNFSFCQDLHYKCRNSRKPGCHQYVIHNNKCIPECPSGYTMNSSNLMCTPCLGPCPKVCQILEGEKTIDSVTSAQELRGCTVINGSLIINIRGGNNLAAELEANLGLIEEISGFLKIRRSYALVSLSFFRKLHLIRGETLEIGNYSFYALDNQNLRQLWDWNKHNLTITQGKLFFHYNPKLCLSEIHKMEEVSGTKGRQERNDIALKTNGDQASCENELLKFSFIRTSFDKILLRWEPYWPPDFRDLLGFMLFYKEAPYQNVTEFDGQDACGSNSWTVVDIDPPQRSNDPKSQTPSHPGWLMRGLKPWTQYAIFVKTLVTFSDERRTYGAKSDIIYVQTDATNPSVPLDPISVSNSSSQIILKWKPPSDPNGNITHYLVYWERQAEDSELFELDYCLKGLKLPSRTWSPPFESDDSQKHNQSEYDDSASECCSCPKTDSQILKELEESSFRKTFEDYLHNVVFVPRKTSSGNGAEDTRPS
Insulin receptor, sequence (P15127 764-1383 limits assumed): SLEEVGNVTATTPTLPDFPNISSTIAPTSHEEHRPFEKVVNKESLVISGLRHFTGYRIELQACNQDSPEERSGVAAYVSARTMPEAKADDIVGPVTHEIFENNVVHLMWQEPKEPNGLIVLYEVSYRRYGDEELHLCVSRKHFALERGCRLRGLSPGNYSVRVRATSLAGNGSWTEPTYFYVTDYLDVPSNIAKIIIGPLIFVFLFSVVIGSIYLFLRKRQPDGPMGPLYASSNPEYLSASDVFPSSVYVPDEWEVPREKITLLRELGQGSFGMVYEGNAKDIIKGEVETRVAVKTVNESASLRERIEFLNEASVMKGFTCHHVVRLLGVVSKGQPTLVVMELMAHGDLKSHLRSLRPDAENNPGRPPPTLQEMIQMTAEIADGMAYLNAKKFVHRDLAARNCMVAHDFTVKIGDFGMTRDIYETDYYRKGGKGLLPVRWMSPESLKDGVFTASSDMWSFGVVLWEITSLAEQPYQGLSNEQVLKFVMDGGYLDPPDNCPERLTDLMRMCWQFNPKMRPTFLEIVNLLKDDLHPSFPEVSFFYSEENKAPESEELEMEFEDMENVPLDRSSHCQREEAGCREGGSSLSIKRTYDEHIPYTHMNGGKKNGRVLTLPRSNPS
Melanocortin receptor 5, sequence (P33032 whole entry): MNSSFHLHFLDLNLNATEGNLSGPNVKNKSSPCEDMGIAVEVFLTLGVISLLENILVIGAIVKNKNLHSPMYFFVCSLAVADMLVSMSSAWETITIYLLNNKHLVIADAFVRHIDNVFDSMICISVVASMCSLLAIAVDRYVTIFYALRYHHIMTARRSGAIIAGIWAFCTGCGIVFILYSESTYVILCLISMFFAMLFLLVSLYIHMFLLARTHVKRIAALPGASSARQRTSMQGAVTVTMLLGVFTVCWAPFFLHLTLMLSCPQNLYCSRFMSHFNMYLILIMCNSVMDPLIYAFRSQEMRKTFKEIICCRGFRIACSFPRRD
Mitogen-activated protein kinase 3, sequence (P27361 whole entry): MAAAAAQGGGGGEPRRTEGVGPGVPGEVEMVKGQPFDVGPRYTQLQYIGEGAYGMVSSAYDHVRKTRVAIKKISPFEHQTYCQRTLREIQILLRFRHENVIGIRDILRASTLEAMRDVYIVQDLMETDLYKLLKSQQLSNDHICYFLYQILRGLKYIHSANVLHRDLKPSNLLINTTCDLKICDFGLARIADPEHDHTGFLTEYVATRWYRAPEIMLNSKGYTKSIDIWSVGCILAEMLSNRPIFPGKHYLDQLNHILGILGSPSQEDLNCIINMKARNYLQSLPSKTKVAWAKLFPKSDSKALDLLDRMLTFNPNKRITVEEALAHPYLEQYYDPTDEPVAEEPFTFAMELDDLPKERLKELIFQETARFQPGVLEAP

For `CC1=C2C(=CO[C@H](C)[C@H]2C)C(O)=C(C(=O)O)C1=O` [CITRININ], the 50% inhibitory concentration (IC50) entry in data set [1], in data set [2], in data set [3] (cho), in data set [4], in data set [5] and in data set [6] was “Not Active” in each case. Besides, the concentration for half-maximal inhibition (IC50) result in data set [7] and in data set [8] was “Not Active” throughout. In addition, the Ki result in data set [1], in data set [6] and in data set [8] was “Not Active” each time.

With `O=C(CCCN1CC=C(n2c(=O)[nH]c3ccccc32)CC1)c1ccc(F)cc1` [DROPERIDOL], the IC50 (in general, the midpoint of a concentration-inhibition curve) was “Not Active” in data set [1]; “Not Active” in data set [2]; 2.77 nM in data set [3] (read-out: IC50); “Not Active” in data set [4]; “Not Active” in data set [5]; “Not Active” in data set [6]. Also, the IC50 entry in data set [7] and in data set [8] was “Not Active” in each case. For the same compound, the Ki (commonly a measure of affinity in units of concentration, obtained from inhibition or displacement) in data set [1] is “Not Active”; in data set [3] (read-out: Ki), 0.939 nM; in data set [6], “Not Active”; in data set [8], “Not Active”.

Consider `CCCCc1nc(Cl)c(CO)n1Cc1ccc(-c2ccccc2-c2nnn[nH]2)cc1` [LOSARTAN], for which the IC50 result in data set [1], in data set [2], in data set [3] (cho), in data set [4], in data set [5] and in data set [6] was “Not Active” each time. Besides, the IC50 entry in data set [7] and in data set [8] was “Not Active” in each case. In addition, the Ki entry in data set [1], in data set [6] and in data set [8] was “Not Active” in each case.

Regarding `Cc1cc(C2CCCCC2)n(O)c(=O)c1` [CICLOPIROX], the 50% inhibitory concentration (IC50) result in data set [1], in data set [2], in data set [3] (cho), in data set [4], in data set [5] and in data set [6] was “Not Active” throughout. Moreover, the IC50 entry in data set [7] and in data set [8] was “Not Active” each time. The Ki result in data set [1], in data set [6] and in data set [8] was “Not Active” each time.

As for `CCCCN1CCCC[C@H]1C(=O)Nc1c(C)cccc1C` [LEVOBUPIVACAINE], the concentration for half-maximal inhibition (IC50) entry in data set [1], in data set [2], in data set [3] (cho), in data set [4], in data set [5] and in data set [6] was “Not Active” in each case. The IC50 entry in data set [7] and in data set [8] was “Not Active” each time. Besides, the Ki result in data set [1], in data set [6] and in data set [8] was “Not Active” in each case.

Turning to `CC[C@@]1(O)C[C@H](O[C@H]2C[C@H](N(C)C)[C@H](O[C@H]3C[C@H](O)[C@H](O[C@H]4CCC(=O)[C@H](C)O4)[C@H](C)O3)[C@H](C)O2)c2c(cc3c(c2O)C(=O)c2c(O)cccc2C3=O)[C@H]1C(=O)OC` [ACLARUBICIN], the half-maximal inhibitory concentration (IC50) entry in data set [1], in data set [2], in data set [3] (cho), in data set [4], in data set [5] and in data set [6] was “Not Active” in each case. The IC50 entry in data set [7] and in data set [8] was “Not Active” each time. Besides, the Ki entry in data set [1], in data set [6] and in data set [8] was “Not Active” throughout.

`CC(=O)O[C@@]12CO[C@@H]1C[C@H](O)[C@@]1(C)C(=O)[C@H](O)C3=C(C)[C@@H](OC(=O)[C@H](O)[C@@H](NC(=O)OC(C)(C)C)c4ccccc4)C[C@@](O)([C@@H](OC(=O)c4ccccc4)[C@H]21)C3(C)C.O.O.O` [DOCETAXEL]: the IC50 entry in data set [1], in data set [2], in data set [3] (cho), in data set [4], in data set [5] and in data set [6] was “Not Active” throughout. The IC50 entry in data set [7] and in data set [8] was “Not Active” each time. The Ki entry in data set [1], in data set [6] and in data set [8] was “Not Active” each time.

Take `CNCCc1ccccn1` [BETAHISTINE]: the IC50 entry in data set [1], in data set [2], in data set [3] (cho), in data set [4], in data set [5] and in data set [6] was “Not Active” throughout. The IC50 result in data set [7] and in data set [8] was “Not Active” throughout. Besides, the Ki entry in data set [1], in data set [6] and in data set [8] was “Not Active” throughout.

As for `COc1cc2nc(N3CCN(C(=O)C4COc5ccccc5O4)CC3)nc(N)c2cc1OC` (stereo not given) [DOXAZOSIN], the IC50 result in data set [1], in data set [2], in data set [3] (cho), in data set [4], in data set [5] and in data set [6] was “Not Active” in each case. Moreover, the IC50 result in data set [7] and in data set [8] was “Not Active” in each case. Moreover, the Ki result in data set [1], in data set [6] and in data set [8] was “Not Active” each time.

With `Clc1cccc(Cl)c1NC1=NCCN1` [CLONIDINE], the IC50 result in data set [1], in data set [2], in data set [3] (cho), in data set [4], in data set [5] and in data set [6] was “Not Active” throughout. Further, the IC50 result in data set [7] and in data set [8] was “Not Active” in each case. Moreover, the Ki result in data set [1], in data set [6] and in data set [8] was “Not Active” each time.

For the compound `C[C@H](CS)C(=O)N1CCC[C@H]1C(=O)O` [CAPTOPRIL], the IC50 entry in data set [1], in data set [2], in data set [3] (cho), in data set [4], in data set [5] and in data set [6] was “Not Active” each time. In addition, the IC50 entry in data set [7] and in data set [8] was “Not Active” throughout. In addition, the Ki entry in data set [1], in data set [6] and in data set [8] was “Not Active” each time.

Turning to `CC(C)(Oc1ccc(Cl)cc1)C(=O)O` [CLOFIBRIC ACID], the half-maximal inhibitory concentration (IC50) result in data set [1], in data set [2], in data set [3] (cho), in data set [4], in data set [5] and in data set [6] was “Not Active” throughout. For the same compound, the IC50 result in data set [7] and in data set [8] was “Not Active” in each case. Moreover, the Ki entry in data set [1], in data set [6] and in data set [8] was “Not Active” throughout.

For `OC(Cn1cncn1)(Cn1cncn1)c1ccc(F)cc1F` [FLUCONAZOLE], the IC50 entry in data set [1], in data set [2], in data set [3] (cho), in data set [4], in data set [5] and in data set [6] was “Not Active” in each case. Also, the IC50 entry in data set [7] and in data set [8] was “Not Active” in each case. Also, the Ki result in data set [1], in data set [6] and in data set [8] was “Not Active” each time.

With `O=C1CC[C@@H](N2C(=O)c3ccccc3C2=O)C(=O)N1`, the IC50 result in data set [1], in data set [2], in data set [3] (cho), in data set [4], in data set [5] and in data set [6] was “Not Active” throughout. Also, the IC50 entry in data set [7] and in data set [8] was “Not Active” in each case. Also, the Ki entry in data set [1], in data set [6] and in data set [8] was “Not Active” each time.

Values taken from ChEMBL document CHEMBL1909046, “DrugMatrix in vitro pharmacology data”.
